Measurements: ChEMBL document CHEMBL5331133, “Discovery of AZD4747, a Potent and Selective Inhibitor of Mutant GTPase KRASG12C with Demonstrable CNS Penetration” (J Med Chem, 2023)
pIC50: −log10 of the molar value.

Assays:
[1] = Half life in Wistar Han rat at 1.1 to 2.3 microM/Kg, iv; assay type: ADME; details: in vivo, dose 1.1-2.3 µM/Kg
[2] = Hepatic blood flow in Beagle dog at 1.1 microM/Kg, iv; assay type: ADME, Canis lupus familiaris
[3] = Oral bioavailability in Beagle dog at 2.3 microM/Kg; assay type: ADME, organism-based, Canis lupus familiaris; details: in vivo, at 2.3 µmol/kg
[4] = Inhibition of KRAS/MAPK pathway in human PC-9 cells harboring wild-type KRAS assessed as decrease in p90RSK phosphorylation incubated for 2 hrs by immunofluorescence assay; assay type: cell-based; details: PC-9, 2 h
Mus musculus [5] = species on record: Mus musculus; details: dose 10-30 mg/kg, route po, time 6.0 hrs
[6] = Toxicity in athymic nude mouse xenografted with human NCI-H358 cells harboring KRAS G12C mutant assessed as body weight change at 10 to 100 mg/kg, po for 21 days; assay type: organism-based; details: in vivo, 504 h, dose 10-100 mg/kg, time 21 day
[7] = Hepatic blood flow in Wistar Han rat at 1.1 to 2.3 microM/Kg, iv; assay type: ADME; details: dose 1.1-2.3 µM/Kg
NCI-H358 [8] = test: Antiproliferative activity against human NCI-H358 cells harboring KRAS G12C mutant cultured as […] assessed as reduction in cell proliferation incubated for 3 days by CellTiter-Glo reagent based assay; assay type: functional; details: NCI-H358, 72 h
[9] = Inhibition of KRAS/MAPK pathway in human Calu-6 cells harboring KRAS Q61K mutant assessed as decrease in p90RSK phosphorylation incubated for 2 hrs by immunofluorescence assay; assay type: cell-based; details: Calu-6, 2 h
MDR1 and BCRP = test: Efflux ratio of apparent permeability in dog MDCK cells transfected with MDR1 and BCRP at 0.1 uM; assay type: ADME, cell-based, Canis lupus familiaris
[10] = Volume of distribution at steady state in Wistar Han rat at 1.1 to 2.3 microM/Kg, iv; assay type: ADME; details: in vivo, dose 1.1-2.3 µM/Kg, read-out: Vdss
[11] = Oral bioavailability in CD-1 mouse at 6.8 microM/Kg; assay type: ADME, organism-based; details: in vivo, at 6.8 µmol/kg
in vitro = details: human, liver microsomes, CLH
Description: Microsomal stability in human liver microsomes assessed as intrinsic clearance

[12] = Hepatic extraction ratio in Wistar Han rat at 1.1 to 2.3 microM/Kg, iv; assay type: ADME; details: dose 1.1-2.3 µM/Kg, read-out: ERH
[13] = […] stability in rat hepatocyte assessed as intrinsic clearance measured per million of cells; assay type: ADME, cell-based; details: hepatocytes
[14] = Unbound brain-to-plasma concentration ratio in Wistar Han rat at 2.3 microM/Kg, iv and measured after 4 hrs; assay type: ADME, organism-based; details: read-out: K(p,uu,brain)
[15] = Observed clearance in Beagle dog at 1.1 microM/Kg, iv; assay type: ADME, Canis lupus familiaris; details: in vivo
[16] = Hepatic blood flow in CD-1 mouse at 2.3 microM/Kg, iv; assay type: ADME
GTPase KRas = GTPase KRas (Homo sapiens, UniProt P01116, G12C)
GTPase KRas, sequence (P01116 whole entry G12C): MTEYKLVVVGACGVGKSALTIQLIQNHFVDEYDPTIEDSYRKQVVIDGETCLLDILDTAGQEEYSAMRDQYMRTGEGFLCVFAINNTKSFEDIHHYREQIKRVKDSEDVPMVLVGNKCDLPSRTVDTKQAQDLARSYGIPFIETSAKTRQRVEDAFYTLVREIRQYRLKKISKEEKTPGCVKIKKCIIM

[17] = Hepatic extraction ratio in CD-1 mouse at 2.3 microM/Kg, iv; assay type: ADME; details: at 2.3 µmol/kg, read-out: ERH
A549 = test: Antiproliferative activity against human A549 cells harboring KRAS G12S mutant cultured as 3D spheroids assessed as reduction in cell proliferation incubated for 3 days by CellTiter-Glo 3D reagent based assay; assay type: functional; details: A549, 72 h
[18] = Unbound brain-to-plasma concentration ratio in Wistar Han rat at 2.3 microM/Kg, iv and measured after 1 hrs in presence of pretreatment with elacridar for 0.5 hrs; assay type: ADME, organism-based; details: with elacridar (pretreatment for 0.5 hrs, dose not stated), read-out: K(p,uu,brain)
[19] = Lipophilicity, logD of compound at 7.4; details: octanol/water, pH 7.4, logD
[20] = Inhibition of KRAS/MAPK pathway in human NCI-H358 cells harboring KRAS G12C mutant assessed as decrease in p90RSK phosphorylation incubated for 2 hrs by immunofluorescence assay; assay type: cell-based; details: NCI-H358, 2 h
[21] = Half life in Beagle dog at 1.1 microM/Kg, iv; assay type: ADME, Canis lupus familiaris; details: in vivo
[22] = Free drug concentration in athymic nude mouse plasma xenografted with human NCI-H358 cells harboring KRAS G12C mutant at 30 to 100 mg/kg, po and measured upto 24 hrs; assay type: ADME, organism-based; details: in vivo, dose 30-100 mg/kg
[23] = Drug distribution in iv dosed Cynomolgus monkey brain administered as […] compound and assessed as radioactivity and measured 5 to 123 min post dose by PET imaging analysis; assay type: ADME, organism-based, Macaca fascicularis; details: in vivo, time 5-123 min
[24] = Unbound brain-to-plasma concentration ratio in Beagle dog at 170 to 680 microM/Kg, po QD for 15 days and measured 2 hrs last dose; assay type: ADME, organism-based, Canis lupus familiaris; details: dose 170-680 µM/Kg, time 15 day, read-out: K(p,uu,brain)
[25] = Volume of distribution at steady state in Beagle dog at 1.1 microM/Kg, iv; assay type: ADME, Canis lupus familiaris; details: in vivo, read-out: Vdss
[26] = Unbound brain-to-plasma concentration ratio in iv dosed Cynomolgus monkey administered as […] compound by HPLC analysis; assay type: ADME, organism-based, Macaca fascicularis; details: read-out: K(p,uu,brain)
Mus musculus [27] = species on record: Mus musculus; details: dose 10-30 mg/kg, route po, time 3.0 hrs
[28] = Hepatic extraction ratio in Beagle dog at 1.1 microM/Kg, iv; assay type: ADME, Canis lupus familiaris; details: at 1.1 µmol/kg, read-out: ERH
[29] = Observed clearance in Wistar Han rat at 1.1 to 2.3 microM/Kg, iv; assay type: ADME; details: in vivo, dose 1.1-2.3 µM/Kg
NCI-H358 [30] = test: Antiproliferative activity against human NCI-H358 cells harboring KRAS G12C mutant cultured as 3D spheroids assessed as reduction in cell proliferation incubated for 3 days by CellTiter-Glo 3D reagent based assay; assay type: functional; details: NCI-H358, 72 h
[31] = Oral bioavailability in Wistar Han rat at 2.3 to 6.8 microM/Kg; assay type: ADME, organism-based; details: in vivo, dose 2.3-6.8 µM/Kg
[32] = Volume of distribution at steady state in CD-1 mouse at 2.3 microM/Kg, iv; assay type: ADME; details: in vivo

half-life [1]: 0.56 h
QH [2]: 55 mL/min/kg
bioavailability [3]: 63%
pIC50 [4]: < 4.52
QH [7]: 72 mL/min/kg
pIC50 (NCI-H358 [8]): 6.44
pIC50 [9]: < 4.52
efflux ratio at 0.1 µM (MDR1 and BCRP): 1.1
Vd [10]: 1.7 L/kg
bioavailability [11]: 58%
microsomal CLint (in vitro): 15 µL/min/mg
hepatic extraction ratio [12]: 0.75
CLH [13]: 34 µL/min
Kp uu at 4 h [14]: 0.11
clearance [15]: 10 mL/min/kg
QH [16]: 152 mL/min/kg
pIC50 (GTPase KRas): 7.82
hepatic extraction ratio [17]: 0.52
pIC50 (A549): 4.63
Kp uu at 1 h [18]: 1
logD [19]: 2.9
pIC50 [20]: 7.19
half-life [21]: 1.7 h
Cp(f) [22]: 40 nM
Drug uptake [23]: Active
Kp uu at 360 h [24]: 0.7
Vd [25]: 1.2 L/kg
Kp uu [26]: 1.6
hepatic extraction ratio [28]: 0.19
clearance [29]: 54 mL/min/kg
pIC50 (NCI-H358 [30]): 7.92
bioavailability [31]: 18%
Vdss [32]: 2.9 L/kg
Structure (SMILES): C=CC(=O)N1CCN2Cc3cc(C#CC)c(-c4c(O)cccc4Cl)c(F)c3OC[C@H]2C1
inhibition (Mus musculus [5]): Dose-Dependent Effect
Activity [6]: Non-Toxic
inhibition (Mus musculus [27]): Dose-Dependent Effect
